Laboratory results published in patent US5527940A, “Methanediphosphonate derivative, its manufacturing process and its pharmaceutical applications” (Toray Industries, Inc., priority 1991, dated 1996).

Experiments:
adjuvant arthritis model = assay: Adjuvant Arthritis Test; assay type: in vivo, 7 week old female Lewis rats; details: subcutaneous daily days 8-21
Description: Multiple arthritis resembling human chronic articular rheumatism occurs when tubercule bacillus adjuvant is injected into rats. The antiinflammatory, antirheumatic and bone metabolism improving action of compounds of the present invention were investigated according to the following procedure using this adjuvant arthritis model.
0.1 mg of dried non-viable Mycobacterium butyricum cells were suspended in 0.1 ml of liquid paraffin followed by injection into the skin of the left hind limb of 7 week old female Lewis rats. The compounds obtained in the Examples were dissolved in sterilized distilled water and administered subcutaneously every day for two weeks from the 8th to 21st days after injection of adjuvant. During that time, the volumes of the right and left hind limbs were measured and the swelling rate was calculated according to the following formula: [formula]
Moreover, the swelling inhibition rates were also determined according to the following formula, and those values are shown in Table 1. [formula]
Soft X-ray radiographs were taken of the left and right hind limbs of the animals following sacrifice on day 22. The degree of bone destruction at five locations in the left and right hind limbs was evaluated based on the soft X-ray radiographs scoring those results among 5 ranks. Moreover, the bone destruction inhibition rate was calculated using the following formula, and those values are shown in Table 1. [formula]
Those results that were significant at a level of significance of P<0.001 with respect to a control group administered only sterilized distilled water according to the Student's t-test and Chukey's multiple comparison method were indicated with three asterisks (***), those results that were significant at a level of significance of P<0.01 were indicated with two asterisks (**), and those significant at a level of significance of P<0.05 were indicated with one asterisk (*).
The swelling inhibition rates for Example 7 and Example 33 are the values for day 14 and day 21.

[1] = system: IL-1 stimulated release of proteoglycan from cartilage cells; assay: Proteoglycan release from IL-1 stimulated rabbit knee joint cartilage cells (35S label); assay type: cell-based, New Zealand White rabbits; details: 100 μM compound, IL-1β 30 units/ml, 24 hours
Description: When cartilage from a rabbit knee joint is isolated and cultured followed by IL-1 stimulation, proteoglycan of glycoprotein, the major component of cartilage, is released. The IL-1 inhibitory action of compounds of the present invention was measured as described below using this action as an index.
Exsanguination was performed on 3 week old, male New Zealand White rabbits having body weights of 250-300 g under diethyl ether anesthesia, after which the knee joints were removed. The cartilage portions of the knee joints were removed with a scalpel and immersed in a CMF solution comprising 0.14M sodium chloride, 4 mM potassium chloride, 0.4 mM sodium dihydrogen phosphate, 12 mM sodium bicarbonate, 0.2 mM potassium dihydrogen phosphate and 11 mM glucose. This cartilage was then placed in 0.1% EDTA and incubated for 20 minutes at 37° C. […]
The cell layer was dissolved by adding 200 μg of pronase E and treating for 24 hours at 37° C. […] The precipitated proteoglycan was collected in a glass filter, added to a liquid scintillator and counted with a liquid scintillation counter. […]
Each of the resulting counts were expressed as a percentage of the count obtained from the initially added inorganic sulfuric acid. […]

## CSc1ccc(SC(P(=O)(O)O)P(=O)(O)O)cc1 [Example 2, (4-methylthiophenyl)thiomethanediphosphonic acid]
Adjuvant arthritis model; Day 22, soft X-ray score of left and right hind limbs
  Bone Destruction Inhibition Rate with respect to control group, Day 22: 62.3%
Adjuvant arthritis model; left (adjuvant-injected) hind limb, Day 16
  Swelling Inhibition Rate with respect to Control Group, Day 16, Left: 96.0%
Adjuvant arthritis model; left (adjuvant-injected) hind limb, Day 21
  Swelling Inhibition Rate with respect to Control Group, Day 21, Left: 122.5%
Adjuvant arthritis model; right hind limb, Day 16
  Swelling Inhibition Rate with respect to Control Group, Day 16, Right: 9.1%
Adjuvant arthritis model; right hind limb, Day 21
  Swelling Inhibition Rate with respect to Control Group, Day 21, Right: 30.6%
[1]; cell layer
  Proteoglycan count, Cell Layer (percentage of the count from initially added inorganic sulfuric acid): 0.28 ± 0.019%
[1]; cell supernatant
  Proteoglycan count, Cell Supernatant (percentage of the count from initially added inorganic sulfuric acid): 0.74 ± 0.061%
